Laboratory results published in patent US10794932B2, “Biosensor for the detection of a biological target, and method for manufacturing the same” (The Governing Council of The University of Toronto, priority 2016, dated 2020).
“And” between values parts separate entries of the source, which are not always exact repeats. Identical values can stand only once.

Assays:
[1] = target: T1, rmTLR1 (Mus musculus, UniProt Q9EPQ1); experiment: Label-free TLR1 sensor, EIS detection of Pam3CSK4 (Example 7); format: binding; conditions: for delta Rct %: 20 minutes; for Rct: before immersion 10250
T1 construct: purchased R&D Systems RDS1476TR050
T1 sequence (Q9EPQ1 26-795): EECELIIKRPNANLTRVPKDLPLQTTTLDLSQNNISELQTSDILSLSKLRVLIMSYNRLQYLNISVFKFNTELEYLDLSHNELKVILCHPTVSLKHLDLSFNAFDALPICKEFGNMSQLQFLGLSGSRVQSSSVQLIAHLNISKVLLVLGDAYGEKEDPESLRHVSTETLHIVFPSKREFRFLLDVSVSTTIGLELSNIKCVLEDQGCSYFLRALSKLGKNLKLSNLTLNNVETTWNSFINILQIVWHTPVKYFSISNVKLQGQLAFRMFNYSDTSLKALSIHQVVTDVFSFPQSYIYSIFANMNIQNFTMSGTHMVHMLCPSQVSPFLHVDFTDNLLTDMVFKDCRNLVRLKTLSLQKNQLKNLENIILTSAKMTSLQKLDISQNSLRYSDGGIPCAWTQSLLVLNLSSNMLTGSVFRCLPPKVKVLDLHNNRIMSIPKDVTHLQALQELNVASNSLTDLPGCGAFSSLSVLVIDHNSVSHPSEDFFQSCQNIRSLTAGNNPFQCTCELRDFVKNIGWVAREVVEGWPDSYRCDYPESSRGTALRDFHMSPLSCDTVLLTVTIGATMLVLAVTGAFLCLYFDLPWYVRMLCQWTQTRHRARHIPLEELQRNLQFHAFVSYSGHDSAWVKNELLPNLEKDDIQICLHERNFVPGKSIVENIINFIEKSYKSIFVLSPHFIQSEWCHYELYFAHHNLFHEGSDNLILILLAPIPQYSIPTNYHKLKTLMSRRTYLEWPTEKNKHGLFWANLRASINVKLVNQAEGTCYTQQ
Procedure: (§1) TLR sensors were prepared using fresh, cleaned gold electrodes. The electrodes were immersed in a 2 mM 1-lipoic acid n-hydroxysuccinimide ester (LPA) ethanol solution for 48 hours at 277 K. The electrodes were then rinsed thoroughly using absolute ethanol and blown dry under nitrogen before incubation in 200 μg/ml rmTLR1, 200 μg/ml rmTLR2 and 200 μg/ml ‘rmTLR1 and 2’ mixture for 72 hours at 277 K. The rmTLR1 and 2 mixture was prepared by mixing 200 μg/ml rmTLR1 and 200 μg/ml rmTLR2 with a volume ratio of 1:1. The final concentration of each component was 100 μg/ml and the total concentration of the combined TLR protein content was 200 μg/ml. Following the supplier's recommended conditions, all TLRs were prepared in PBS buffer (pH˜7.4). The electrodes were rinsed with an excess volume of Milli-Q water and blown dry under nitrogen. An ethanolamine-tris buffer solution was prepared by dissolving 1.2 g of ethanolamine and 0.121 g of Tris base in 20 mL of water, the pH was adjusted to 8.4 using hydrochloric acid. TLR-immobilized electrodes were incubated in the ethanolamine solution for one hour at room temperature in order to block any remaining unreacted LPA amine sites. The fabricated sensors with immobilized, standalone rmTLR3, rmTLR4/MD-2 and rmTLR5, used for the selectivity test, were prepared using the same protocol described above.
(§2) Pam3CSK4 was dissolved in 10 mM HEPES aqueous buffer at pH˜7.4. The blocked rmTLR biosensors were incubated in Pam3CSK4 at various concentrations for 20 minutes. The electrodes were always washed thoroughly with same HEPES buffer (pH˜7.4) after the incubation.
(§3) All electrochemical measurements were carried out using a cell with a three-electrode configuration in an enclosed Faraday cage. CV and EIS measurements were completed using a CHI-660b potentiostat (CH Instruments, Austin, Tex.). rmTLR-modified gold electrodes and platinum (Pt) wire were used as the working electrode and the counter electrode, respectively. A reference electrode (Ag/AgCl/3.0M KCl) and a salt bridge, filled with an agar and 1M KNO3 aqueous solution, were inserted to minimize the diffusion of chloride ions into the electrolyte solution. The agar solution was prepared by dissolving 2.0 grams of agar and 10.1 g KNOB in 100 mL of water. The CV and EIS electrolyte was made in a 10 mM HEPES aqueous buffer at pH˜7.4, which consisted of a 5 mM K4Fe(CN)6/5 mM K3Fe(CN)6 as a redox couple with 1M of NaClO4 as the supporting electrolyte. For consistency, the electrochemical measurements were carried out with open-circuit potentials. EIS experiments were conducted in the frequency range of 100,000 to 0.1 Hz with an amplitude of 5 mV. The experimental EIS curves were evaluated to determine the film resistance using ZSimpWin 2.0 software.

[2] = tested on: rmTLR2; experiment: Label-free TLR2 sensor, EIS detection of Pam3CSK4 (Example 7); format: binding, mouse; conditions: for delta Rct %: 20 minutes; for Rct: before immersion 7784
Procedure: as §1, §2, §3

With Pam3CSK4 the limit of detection [1] was 10 µM, the “delta Rct %” value ([1]; 5 μM) was “not significant” and the “delta Rct %” value ([1]; 25 μM) was 59±7%. For the same substance, the “delta Rct %” value ([1]; 50 μM) was 98±10%, the Rct ([1]; after 5 μM) was 10780 Ω · cm^2 and the Rct ([1]; after 10 μM) was 12760 Ω · cm^2. For the same substance, the Rct ([1]; after 25 μM) was 16840 Ω · cm^2, the Rct ([1]; after 50 μM) was 21010 Ω · cm^2 and the limit of detection [2] was 10 µM. The “delta Rct %” value ([2]; 5 μM) was “not significant”, the “delta Rct %” value ([2]; 10 μM) was 32±6% and ~30% and the “delta Rct %” value ([2]; 25 μM) was 42±18%. The “delta Rct %” value ([2]; 50 μM) was 80±32%, the Rct ([2]; after 5 μM) was 7355 Ω · cm^2 and the Rct ([2]; after 10 μM) was 9446 Ω · cm^2. For the same substance, the Rct ([2]; after 25 μM) was 12770 Ω · cm^2 and the Rct ([2]; after 50 μM) was 17610 Ω · cm^2.
